Data reported in ChEMBL document CHEMBL4387711, “Discovery of niclosamide and its O-alkylamino-tethered derivatives as potent antibacterial agents against carbapenemase-producing and/or colistin resistant Enterobacteriaceae isolates” (2019).
The source made the active and inactive calls.

How the values were obtained:
Type in all cases: functional, organism-based
[1] = test system: Enterobacter cloacae; experiment: Antibacterial activity against colistin-resistant Enterobacter cloacae 297 assessed as inhibition of growth at 50 uM after 18 hrs
[2] = test system: Klebsiella aerogenes; experiment: Antibacterial activity against colistin-resistant Enterobacter aerogenes 3 assessed as inhibition of growth at 50 uM after 18 hrs
[3] = test system: Klebsiella aerogenes; experiment: Antibacterial activity against colistin-resistant Enterobacter aerogenes 53 assessed as inhibition of growth at 50 uM after 18 hrs
[4] = test system: Enterobacter cloacae; experiment: Antibacterial activity against colistin-resistant Enterobacter cloacae 32 assessed as inhibition of growth at 50 uM after 18 hrs
[5] = test system: Enterobacter cloacae; experiment: Antibacterial activity against colistin-resistant Enterobacter cloacae 142 assessed as inhibition of growth at 50 uM after 18 hrs
[6] = test system: Enterobacter cloacae; experiment: Antibacterial activity against colistin-resistant Enterobacter cloacae 272 assessed as inhibition of growth at 50 uM after 18 hrs
[7] = test system: Enterobacter cloacae; experiment: Antibacterial activity against colistin-resistant Enterobacter cloacae 280 assessed as inhibition of growth at 50 uM after 18 hrs
[8] = test system: Klebsiella pneumoniae; experiment: Antibacterial activity against colistin-susceptible NDM-1/carbapenemase-producing Klebsiella pneumoniae assessed as inhibition of growth at 50 uM after 18 hrs
[9] = test system: Klebsiella pneumoniae; experiment: Antibacterial activity against Klebsiella pneumoniae CECT-997 assessed as inhibition of growth at 50 uM after 18 hrs
[10] = test system: Klebsiella pneumoniae; experiment: Antibacterial activity against colistin-resistant OXA-48/CTX-M-15/carbapenemase-producing Klebsiella pneumoniae 29 assessed as inhibition of growth at 50 uM after 18 hrs
[11] = test system: Klebsiella pneumoniae; experiment: Antibacterial activity against colistin-resistant VIM1/DHAI/carbapenemase-producing Klebsiella pneumoniae 21 assessed as inhibition of growth at 50 uM after 18 hrs
[12] = test system: Enterobacter cloacae; experiment: Antibacterial activity against colistin-resistant Enterobacter cloacae 190 assessed as inhibition of growth at 50 uM after 18 hrs
[13] = test system: Enterobacter cloacae; experiment: Antibacterial activity against colistin-resistant Enterobacter cloacae 263 assessed as inhibition of growth at 50 uM after 18 hrs
[14] = test system: Escherichia coli; experiment: Antibacterial activity against colistin-susceptible NDM1/KPC-producing Escherichia coli assessed as inhibition of growth at 50 uM after 18 hrs
[15] = test system: Klebsiella pneumoniae; experiment: Antibacterial activity against colistin-susceptible VIM1/carbapenemase-producing Klebsiella pneumoniae 07 assessed as inhibition of growth at 50 uM after 18 hrs
[16] = test system: Klebsiella pneumoniae; experiment: Antibacterial activity against colistin-susceptible OXA-48/CTX-M-15/carbapenemase-producing Klebsiella pneumoniae 28 assessed as inhibition of growth at 50 uM after 18 hrs

Measured: growth inhibition (GI)

CN1CCC(Oc2ccc(Cl)cc2C(=O)Nc2ccc([N+](=O)[O-])cc2Cl)CC1
inactive: all assays above

O=C(Nc1ccc([N+](=O)[O-])cc1Cl)c1cc(Cl)ccc1OC1CCNCC1
inactive: all assays above

O=C(Nc1ccc([N+](=O)[O-])cc1Cl)c1cc(Cl)ccc1OCCN1CCNCC1
inactive: all assays above

O=C(Nc1ccc([N+](=O)[O-])cc1Cl)c1cc(Cl)ccc1OCCN1CCOCC1
inactive: all assays above

CN1CCN(CCOc2ccc(Cl)cc2C(=O)Nc2ccc([N+](=O)[O-])cc2Cl)CC1
inactive: all assays above

CN(C)CCOc1ccc(Cl)cc1C(=O)Nc1ccc([N+](=O)[O-])cc1Cl
inactive: all assays above

NCCOc1ccc(Cl)cc1C(=O)Nc1ccc([N+](=O)[O-])cc1Cl
inactive: all assays above

NCCCOc1ccc(Cl)cc1C(=O)Nc1ccc([N+](=O)[O-])cc1Cl
inactive: all assays above

O=C(Nc1ccc([N+](=O)[O-])cc1Cl)c1cc(Cl)ccc1OCCN1CCCCC1
inactive: all assays above
